Source: US20090062899A1, “COMPOSITE STENT WITH POLYMERIC COVERING AND BIOACTIVE COATING” (NFOCUS NEUROMEDICAL, INC., priority 2001, published 2009)

System: endothelial cells
Test: cell growth on surfaces carrying the bioactive (P15) coating
Type: cell-based
Conditions: polymer sleeve covered with the peptide
Description: Chemical/biological testing such as MA (amino acid analysis), in vitro cell cultures followed by SEM (scanning electron microscopy), and in vivo testing can be used for evaluating the coatings of the present invention.

With “H-Gly-Thr-Pro-Gly-Pro-Gln-Gly-Ile-Ala-Gly-Gln-Arg-Gly-Val-Val-OH (H-GTPGPQGIAGQRGVV-OH; also: covalently bound coating on PTFE) [P15]” the endothelial cell growth was “stimulated”.
